In ChEMBL document CHEMBL1136582, “Identification of a high-affinity phosphopeptide inhibitor of Stat3” (Bioorg Med Chem Lett, 2003):
Square brackets hold non-standard residues; d marks the D form. Peptide text beside a SMILES is read from it. * marks the point of attachment. ξ: configuration not given here. Phe(4-tetrazol-5-yl) = N[C@@H](Cc1ccc(-c2nnn[nH]2)cc1)C(=O)O; Phe(4-COOH) = N[C@@H](Cc1ccc(C(=O)O)cc1)C(=O)O; pY = N[C@@H](Cc1ccc(OP(=O)(O)O)cc1)C(=O)O; X1 = NC(=O)[C@H](CO)NC[C@H](CC(=O)O)N*; ξA = CC(N)C(=O)O

Target: Signal transducer and activator of transcription 3 (Homo sapiens, UniProt P40763)
Sequence (P40763 whole entry): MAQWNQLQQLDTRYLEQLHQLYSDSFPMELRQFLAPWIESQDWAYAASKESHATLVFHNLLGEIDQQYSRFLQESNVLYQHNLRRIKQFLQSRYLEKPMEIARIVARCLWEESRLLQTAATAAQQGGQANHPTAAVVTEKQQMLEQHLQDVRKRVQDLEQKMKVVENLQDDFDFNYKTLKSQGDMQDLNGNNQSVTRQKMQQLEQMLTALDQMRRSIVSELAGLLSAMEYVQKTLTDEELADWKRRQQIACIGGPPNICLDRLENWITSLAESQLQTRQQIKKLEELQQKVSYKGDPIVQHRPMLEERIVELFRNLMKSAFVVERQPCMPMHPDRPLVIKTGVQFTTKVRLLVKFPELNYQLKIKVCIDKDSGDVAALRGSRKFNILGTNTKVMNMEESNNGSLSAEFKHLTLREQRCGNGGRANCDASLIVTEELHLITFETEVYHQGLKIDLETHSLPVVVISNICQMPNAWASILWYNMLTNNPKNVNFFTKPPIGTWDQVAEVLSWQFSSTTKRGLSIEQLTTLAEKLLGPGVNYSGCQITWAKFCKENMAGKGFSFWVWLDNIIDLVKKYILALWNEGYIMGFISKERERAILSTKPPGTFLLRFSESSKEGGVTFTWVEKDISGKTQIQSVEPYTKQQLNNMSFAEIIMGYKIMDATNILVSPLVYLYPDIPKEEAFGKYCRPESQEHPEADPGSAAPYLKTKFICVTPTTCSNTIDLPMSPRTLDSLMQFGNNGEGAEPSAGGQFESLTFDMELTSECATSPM
Assay: Inhibition of Stat3 (Signal transduction and activator of transcription 3) dimerization measured by EMSAs (Electrophoretic mobility shift assay)

SMILES	IC50
CC(=O)N[C@@H](Cc1ccc(C(=O)O)cc1)C(=O)N[C@@H](CC(C)C)C(=O)N1CCC[C@H]1C(=O)N[C@@H](CCC(N)=O)C(=O)N[C@H](C(=O)N[C@H](C(N)=O)C(C)C)[C@@H](C)O (Ac-[Phe(4-COOH)]LPQTV-NH2)	> 6 µM
CC(=O)N[C@@H](Cc1ccc(-c2nn[nH]n2)cc1)C(=O)N[C@@H](CC(C)C)C(=O)N1CCC[C@H]1C(=O)N[C@@H](CCC(N)=O)C(=O)N[C@H](C(=O)N[C@H](C(N)=O)C(C)C)[C@@H](C)O (Ac-[Phe(4-tetrazol-5-yl)]LPQTV-NH2)	> 6 µM
CC(=O)N[C@@H](Cc1ccc(OP(=O)(O)O)cc1)C(=O)N[C@@H](CC(C)C)C(=O)N1CCC[C@H]1C(N)=O (Ac-[pY]-Leu-Pro-NH2)	> 6 µM
CC(=O)N[C@@H](Cc1ccc(OP(=O)(O)O)cc1)C(=O)N[C@@H](Cc1ccccc1)C(=O)N[C@@H](CCCCN)C(=O)N[C@@H](CCC(N)=O)C(=O)N[C@@H](CC(N)=O)C(=O)N[C@@H](CS)C(N)=O (Ac-[pY]FKQNC-NH2)	60 µM
CSCC[C@H](NC(=O)[C@H](CCC(N)=O)NC(=O)[C@@H]1CCCN1C(=O)[C@H](CCCCN)NC(=O)[C@H](Cc1ccc(OP(=O)(O)O)cc1)NC(C)=O)C(=O)N[C@@H](Cc1cnc[nH]1)C(N)=O (Ac-[pY]KPQMH-NH2)	0.4 µM
CC(=O)N[C@@H](Cc1ccc(OP(=O)(O)O)cc1)C(=O)N[C@@H](CC(C)C)C(=O)N1CCC[C@H]1C(=O)N[C@@H](C)C(=O)N[C@H](C(=O)N[C@H](C(N)=O)C(C)C)[C@@H](C)O (Ac-[pY]LPATV-NH2)	> 6 µM
CC(=O)N[C@@H](Cc1ccc(OP(=O)(O)O)cc1)C(=O)N[C@@H](CC(C)C)C(=O)N1CCC[C@H]1C(=O)N[C@@H](CCC(=O)O)C(=O)N[C@H](C(=O)N[C@H](C(N)=O)C(C)C)[C@@H](C)O (Ac-[pY]LPETV-NH2)	> 6 µM
CC(=O)N[C@@H](Cc1ccc(OP(=O)(O)O)cc1)C(=O)N[C@@H](CC(C)C)C(=O)N1CCC[C@H]1C(=O)N[C@@H](CCC(N)=O)C(=O)N[C@H](C(=O)N[C@@H](C)C(=O)O)[C@@H](C)O (Ac-[pY]LPQTA-OH)	0.4 µM
CC(=O)N[C@@H](Cc1ccc(OP(=O)(O)O)cc1)C(=O)N[C@@H](CC(C)C)C(=O)N[C@@H](CCCN=C(N)N)C(=O)N[C@@H](CS)C(=O)N[C@H](CN[C@@H](CO)C(N)=O)CC(=O)O (Ac-[pY]LRC-X1)	80 µM
CC(=O)N[C@@H](Cc1ccc(OP(=O)(O)O)cc1)C(=O)N[C@@H](CCC(N)=O)C(=O)N[C@@H](CCCCN)C(=O)N[C@@H](CCC(N)=O)C(=O)N[C@H](C(=O)N[C@@H](CCCN=C(N)N)C(N)=O)[C@@H](C)O (Ac-[pY]QKQTR-NH2)	8 µM
CSCC[C@H](NC(=O)[C@H](C)NC(=O)[C@H](CCC(N)=O)NC(=O)[C@@H]1CCCN1C(=O)[C@H](CCCN=C(N)N)NC(=O)[C@H](Cc1ccc(OP(=O)(O)O)cc1)NC(C)=O)C(N)=O (Ac-[pY]RPQAM-NH2)	1 µM
CC(=O)N[C@@H](Cc1ccc(OP(=O)(O)O)cc1)C(=O)N[C@@H](CO)C(=O)N[C@@H](CC(=O)O)C(=O)NCC(=O)N[C@@H](CC(N)=O)C(=O)N[C@@H](Cc1ccccc1)C(N)=O (Ac-[pY]SDGNF-NH2)	> 150 µM
CC(=O)N[C@@H](Cc1ccc(OP(=O)(O)O)cc1)C(=O)N[C@@H](CO)C(=O)N[C@H](C(=O)N[C@H](C(=O)N[C@H](C(=O)N[C@@H](Cc1c[nH]cn1)C(N)=O)C(C)C)C(C)C)[C@@H](C)O (Ac-[pY]STVVH-NH2)	> 150 µM
CC(=O)N[C@@H](Cc1ccc(OP(=O)(O)O)cc1)C(=O)N[C@H](C(=O)N[C@@H](CC(C)C)C(=O)N[C@@H](CCC(N)=O)C(=O)NCC(=O)N[C@@H](CC(=O)O)C(N)=O)C(C)C (Ac-[pY]VLQGD-NH2)	8 µM

Further lines, results first:

IC50	SMILES
1.6 µM	CC(=O)N[C@@H](Cc1ccc(OP(=O)(O)O)cc1)C(=O)N[C@@H](C)C(=O)N1CCC[C@H]1C(=O)N[C@@H](CCC(N)=O)C(=O)N[C@H](C(=O)N[C@H](C(N)=O)C(C)C)[C@@H](C)O (Ac-[pY]APQTV-NH2)
6 µM	CC(=O)N[C@@H](Cc1ccc(OP(=O)(O)O)cc1)C(=O)N[C@@H](CC(C)C)C(=O)N[C@@H](CCCCN)C(=O)N[C@@H](CCC(N)=O)C(=O)N[C@@H](CCC(=O)O)C(=O)N[C@@H](CO)C(N)=O (Ac-[pY]LKQES-NH2)
2 µM	CC(=O)N[C@@H](Cc1ccc(OP(=O)(O)O)cc1)C(=O)N[C@@H](CC(C)C)C(=O)N1CCC[C@H]1C(=O)N[C@@H](CC(N)=O)C(=O)N[C@H](C(=O)N[C@H](C(N)=O)C(C)C)[C@@H](C)O (Ac-[pY]LPNTV-NH2)
0.8 µM	CC(=O)N[C@@H](Cc1ccc(OP(=O)(O)O)cc1)C(=O)N[C@@H](CC(C)C)C(=O)N1CCC[C@H]1C(=O)N[C@@H](CCC(N)=O)C(=O)N[C@@H](C)C(=O)N[C@H](C(N)=O)C(C)C (Ac-[pY]LPQAV-NH2)
4 µM	CC(=O)N[C@@H](Cc1ccc(OP(=O)(O)O)cc1)C(=O)N[C@@H](CC(C)C)C(=O)NC(C)C(=O)N[C@@H](CCC(N)=O)C(=O)N[C@H](C(=O)N[C@H](C(N)=O)C(C)C)[C@@H](C)O (some centres not stated) (Ac-[pY]L[ξA]QTV-NH2)
1.5 µM	CSCC[C@H](NC(=O)[C@H](Cc1ccc(OP(=O)(O)O)cc1)NC(C)=O)C(=O)N1CCC[C@H]1C(=O)N[C@@H](CCC(N)=O)C(N)=O (Ac-[pY]MPQ-NH2)
6 µM	CC(=O)N[C@@H](Cc1ccc(OP(=O)(O)O)cc1)C(=O)N[C@@H](CCC(N)=O)C(=O)N1CCC[C@H]1C(=O)N[C@@H](CCC(N)=O)C(=O)N[C@@H](C)C(=O)N[C@@H](CCCCN)C(N)=O (Ac-[pY]QPQAK-NH2)
6 µM	CC(=O)N[C@@H](Cc1ccc(OP(=O)(O)O)cc1)C(=O)N[C@@H](CCCN=C(N)N)C(=O)N[C@@H](Cc1cnc[nH]1)C(=O)N[C@@H](CCC(N)=O)C(=O)N[C@H](C(=O)N1CCC[C@H]1C(N)=O)C(C)C (Ac-[pY]RHQVP-NH2)
